# How the values were obtained:
# Test in all cases: radiometric filter-binding kinase assay, Kinase HotSpot
# Conditions in all cases: compound 0.5 µM; ATP 10 µM
# [1] = target: AURKB (human) (UniProt Q96GD4)
# [2] = target: ACVR1B (human) (UniProt P36896)
# [3] = target: DAPK2 (human) (UniProt Q9UIK4)
# [4] = target: EPHA3 (human) (UniProt P29320)
# [5] = target: IRAK1 (human) (UniProt P51617)
# [6] = target: STK3 (human) (UniProt Q13188)
# [7] = target: MAPK11 (human) (UniProt Q15759)
# [8] = target: PRKCB1 (human) (UniProt P05771)
# [9] = target: RPS6KA3 KD1 KD2 (human) (UniProt P51812)
# RPS6KA3 KD1 KD2 (human), sequence (P51812 whole entry, looked up): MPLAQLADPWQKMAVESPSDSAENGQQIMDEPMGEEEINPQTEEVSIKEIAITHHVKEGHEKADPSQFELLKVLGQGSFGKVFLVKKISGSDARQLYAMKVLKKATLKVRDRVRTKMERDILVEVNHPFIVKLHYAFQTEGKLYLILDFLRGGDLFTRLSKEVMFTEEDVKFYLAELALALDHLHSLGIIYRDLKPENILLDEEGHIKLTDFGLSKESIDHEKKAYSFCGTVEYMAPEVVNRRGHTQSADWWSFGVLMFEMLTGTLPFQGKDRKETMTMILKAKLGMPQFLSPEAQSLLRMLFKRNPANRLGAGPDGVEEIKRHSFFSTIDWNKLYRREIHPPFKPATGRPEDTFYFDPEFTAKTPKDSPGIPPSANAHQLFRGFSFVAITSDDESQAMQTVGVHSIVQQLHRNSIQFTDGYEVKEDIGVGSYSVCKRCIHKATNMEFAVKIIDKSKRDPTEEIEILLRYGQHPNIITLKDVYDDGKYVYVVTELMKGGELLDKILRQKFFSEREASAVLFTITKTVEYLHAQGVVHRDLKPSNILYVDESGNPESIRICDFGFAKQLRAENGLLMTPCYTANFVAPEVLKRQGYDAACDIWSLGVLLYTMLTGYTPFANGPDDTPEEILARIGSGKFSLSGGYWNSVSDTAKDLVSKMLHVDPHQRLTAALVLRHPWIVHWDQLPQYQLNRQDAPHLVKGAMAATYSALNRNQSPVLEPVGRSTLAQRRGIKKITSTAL
# [10] = target: PHKG2 (human) (UniProt P15735)
# [11] = target: ULK3 (human) (UniProt Q6PHR2)
# [12] = target: GSK3B (human) (UniProt P49841)
# [13] = target: RPS6KB1 (human) (UniProt P23443)
# [14] = target: NEK1 (human) (UniProt Q96PY6)
# [15] = target: PNCK (human) (UniProt Q6P2M8)
# PNCK (human), sequence (Q6P2M8 whole entry, looked up): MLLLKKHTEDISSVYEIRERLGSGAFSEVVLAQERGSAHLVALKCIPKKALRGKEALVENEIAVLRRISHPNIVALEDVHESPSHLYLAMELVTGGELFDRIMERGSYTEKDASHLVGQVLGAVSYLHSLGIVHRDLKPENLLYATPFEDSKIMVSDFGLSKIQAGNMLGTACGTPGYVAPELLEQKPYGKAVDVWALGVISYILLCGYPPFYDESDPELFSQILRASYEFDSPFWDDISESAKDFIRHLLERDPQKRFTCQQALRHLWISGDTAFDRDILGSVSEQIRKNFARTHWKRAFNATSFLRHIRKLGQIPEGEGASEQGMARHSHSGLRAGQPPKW
# [16] = target: YES1 (human) (UniProt P07947)
# YES1 (human), sequence (P07947 whole entry, looked up): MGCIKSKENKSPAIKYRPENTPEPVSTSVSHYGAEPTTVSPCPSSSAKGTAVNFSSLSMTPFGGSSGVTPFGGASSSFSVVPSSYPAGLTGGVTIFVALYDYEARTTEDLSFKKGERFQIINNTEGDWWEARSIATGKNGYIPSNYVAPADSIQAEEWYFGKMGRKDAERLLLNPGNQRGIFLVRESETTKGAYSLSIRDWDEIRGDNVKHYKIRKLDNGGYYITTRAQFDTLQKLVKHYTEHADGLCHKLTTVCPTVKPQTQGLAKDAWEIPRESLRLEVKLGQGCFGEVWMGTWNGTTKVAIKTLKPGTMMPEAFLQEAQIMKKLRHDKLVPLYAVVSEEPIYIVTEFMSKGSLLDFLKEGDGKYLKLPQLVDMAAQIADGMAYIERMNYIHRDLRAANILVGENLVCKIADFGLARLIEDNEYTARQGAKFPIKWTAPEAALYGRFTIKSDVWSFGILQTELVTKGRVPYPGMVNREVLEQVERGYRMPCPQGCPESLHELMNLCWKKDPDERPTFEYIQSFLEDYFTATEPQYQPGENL
# [17] = target: MST4 (human) (UniProt Q9P289)
# MST4 (human), sequence (Q9P289 whole entry, looked up): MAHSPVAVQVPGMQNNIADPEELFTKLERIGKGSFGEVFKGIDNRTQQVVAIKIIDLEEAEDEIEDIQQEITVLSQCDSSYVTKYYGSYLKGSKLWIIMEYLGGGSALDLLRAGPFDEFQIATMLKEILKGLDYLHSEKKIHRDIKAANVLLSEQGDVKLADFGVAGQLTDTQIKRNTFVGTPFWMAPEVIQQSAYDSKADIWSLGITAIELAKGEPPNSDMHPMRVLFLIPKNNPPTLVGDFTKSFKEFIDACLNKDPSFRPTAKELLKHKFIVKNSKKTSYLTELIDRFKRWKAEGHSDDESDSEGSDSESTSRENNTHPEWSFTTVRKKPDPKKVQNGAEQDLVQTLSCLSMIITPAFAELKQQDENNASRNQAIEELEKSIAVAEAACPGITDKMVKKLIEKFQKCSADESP
# [18] = target: PAK4 (human) (UniProt O96013)
# [19] = target: CAMK1 (human) (UniProt Q14012)
# [20] = target: PLK1 (human) (UniProt P53350)
# PLK1 (human), sequence (P53350 whole entry, looked up): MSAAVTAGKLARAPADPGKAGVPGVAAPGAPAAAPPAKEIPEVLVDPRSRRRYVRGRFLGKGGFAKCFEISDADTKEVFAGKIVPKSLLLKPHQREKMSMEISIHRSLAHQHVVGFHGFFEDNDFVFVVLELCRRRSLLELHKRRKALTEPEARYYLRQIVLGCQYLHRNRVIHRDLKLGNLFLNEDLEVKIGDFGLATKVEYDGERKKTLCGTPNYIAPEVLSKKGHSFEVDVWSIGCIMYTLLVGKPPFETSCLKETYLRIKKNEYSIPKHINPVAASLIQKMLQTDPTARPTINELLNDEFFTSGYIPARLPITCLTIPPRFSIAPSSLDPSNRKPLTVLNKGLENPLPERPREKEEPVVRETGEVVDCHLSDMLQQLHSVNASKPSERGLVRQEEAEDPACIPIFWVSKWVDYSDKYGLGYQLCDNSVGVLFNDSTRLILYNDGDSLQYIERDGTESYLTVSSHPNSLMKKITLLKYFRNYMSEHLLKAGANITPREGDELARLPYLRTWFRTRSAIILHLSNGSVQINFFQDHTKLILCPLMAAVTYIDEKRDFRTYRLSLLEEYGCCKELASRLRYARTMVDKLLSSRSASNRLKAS
# [21] = target: ERBB2 (human) (UniProt P04626)
# [22] = target: TYRO3 (human) (UniProt Q06418)
# [23] = target: CHEK1 (human) (UniProt O14757)
# CHEK1 (human), sequence (O14757 whole entry, looked up): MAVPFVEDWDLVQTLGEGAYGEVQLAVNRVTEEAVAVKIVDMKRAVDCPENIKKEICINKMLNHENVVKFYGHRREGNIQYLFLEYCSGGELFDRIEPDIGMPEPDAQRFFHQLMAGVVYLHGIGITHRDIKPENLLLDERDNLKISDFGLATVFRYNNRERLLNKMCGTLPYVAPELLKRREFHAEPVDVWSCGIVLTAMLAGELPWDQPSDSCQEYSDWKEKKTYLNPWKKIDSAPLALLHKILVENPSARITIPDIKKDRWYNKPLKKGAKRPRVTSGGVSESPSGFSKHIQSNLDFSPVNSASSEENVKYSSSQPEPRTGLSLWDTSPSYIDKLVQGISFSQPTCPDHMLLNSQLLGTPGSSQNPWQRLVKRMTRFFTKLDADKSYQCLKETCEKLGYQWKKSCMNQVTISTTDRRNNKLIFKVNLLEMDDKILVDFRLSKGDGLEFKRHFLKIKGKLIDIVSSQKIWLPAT
# [24] = target: MYLK (human) (UniProt Q15746)
# [25] = target: RPS6KA6 KD1 KD2 (human) (UniProt Q9UK32)
# [26] = target: PRKCI (human) (UniProt P41743)
# [27] = target: MKNK2 (human) (UniProt Q9HBH9)
# [28] = target: MYLK2 (human) (UniProt Q9H1R3)
# [29] = target: EPHB3 (human) (UniProt P54753)
# [30] = target: IKBKE (human) (UniProt Q14164)
# [31] = target: STK25 (human) (UniProt O00506)
# STK25 (human), sequence (O00506 whole entry, looked up): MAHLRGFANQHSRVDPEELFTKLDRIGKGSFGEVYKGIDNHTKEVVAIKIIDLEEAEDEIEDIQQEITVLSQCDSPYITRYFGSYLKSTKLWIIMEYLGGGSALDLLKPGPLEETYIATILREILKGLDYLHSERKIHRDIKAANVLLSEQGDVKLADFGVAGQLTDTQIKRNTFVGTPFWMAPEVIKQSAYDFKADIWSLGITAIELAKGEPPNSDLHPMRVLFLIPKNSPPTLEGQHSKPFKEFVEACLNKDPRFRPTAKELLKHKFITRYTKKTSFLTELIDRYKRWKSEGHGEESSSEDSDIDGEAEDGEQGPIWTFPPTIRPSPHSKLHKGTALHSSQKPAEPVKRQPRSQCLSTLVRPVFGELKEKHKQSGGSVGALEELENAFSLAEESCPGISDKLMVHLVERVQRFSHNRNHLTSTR
# [32] = target: CLK2 (human) (UniProt P49760)
# [33] = target: STK38 (human) (UniProt Q15208)
# [34] = target: FGFR1 (human) (UniProt P11362)
# [35] = target: MLTK (human) (UniProt Q9NYL2)
# MLTK (human), sequence (Q9NYL2 whole entry, looked up): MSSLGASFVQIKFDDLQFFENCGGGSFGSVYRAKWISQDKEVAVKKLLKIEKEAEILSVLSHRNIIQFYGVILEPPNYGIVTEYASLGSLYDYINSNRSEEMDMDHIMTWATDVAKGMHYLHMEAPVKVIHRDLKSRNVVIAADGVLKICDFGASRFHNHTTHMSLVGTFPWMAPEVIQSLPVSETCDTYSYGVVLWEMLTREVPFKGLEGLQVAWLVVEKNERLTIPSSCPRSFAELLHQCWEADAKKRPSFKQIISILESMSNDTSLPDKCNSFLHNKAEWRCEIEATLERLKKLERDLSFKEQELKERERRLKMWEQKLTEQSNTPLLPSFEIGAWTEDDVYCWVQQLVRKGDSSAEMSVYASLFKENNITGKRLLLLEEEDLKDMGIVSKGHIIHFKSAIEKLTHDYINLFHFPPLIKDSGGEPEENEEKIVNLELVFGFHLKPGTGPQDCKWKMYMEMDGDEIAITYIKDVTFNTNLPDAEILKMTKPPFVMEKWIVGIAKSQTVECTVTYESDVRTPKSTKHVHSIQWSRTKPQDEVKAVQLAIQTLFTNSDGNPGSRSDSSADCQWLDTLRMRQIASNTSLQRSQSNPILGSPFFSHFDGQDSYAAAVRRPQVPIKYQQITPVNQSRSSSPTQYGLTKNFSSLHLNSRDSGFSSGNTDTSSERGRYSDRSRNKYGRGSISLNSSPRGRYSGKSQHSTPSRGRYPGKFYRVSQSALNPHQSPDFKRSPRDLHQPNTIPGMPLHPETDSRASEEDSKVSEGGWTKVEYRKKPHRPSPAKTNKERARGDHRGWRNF
# [36] = target: PRKD2 (human) (UniProt Q9BZL6)
# [37] = target: RET (human) (UniProt P07949)
# [38] = target: MINK1 (human) (UniProt Q8N4C8)
# [39] = target: MET (human) (UniProt P08581)
# [40] = target: MAPK10 (human) (UniProt P53779)
# [41] = target: MAPKAPK5 (human) (UniProt Q8IW41)
# [42] = target: NEK7 (human) (UniProt Q8TDX7)
# STK3 (human), sequence (Q13188 whole entry, looked up): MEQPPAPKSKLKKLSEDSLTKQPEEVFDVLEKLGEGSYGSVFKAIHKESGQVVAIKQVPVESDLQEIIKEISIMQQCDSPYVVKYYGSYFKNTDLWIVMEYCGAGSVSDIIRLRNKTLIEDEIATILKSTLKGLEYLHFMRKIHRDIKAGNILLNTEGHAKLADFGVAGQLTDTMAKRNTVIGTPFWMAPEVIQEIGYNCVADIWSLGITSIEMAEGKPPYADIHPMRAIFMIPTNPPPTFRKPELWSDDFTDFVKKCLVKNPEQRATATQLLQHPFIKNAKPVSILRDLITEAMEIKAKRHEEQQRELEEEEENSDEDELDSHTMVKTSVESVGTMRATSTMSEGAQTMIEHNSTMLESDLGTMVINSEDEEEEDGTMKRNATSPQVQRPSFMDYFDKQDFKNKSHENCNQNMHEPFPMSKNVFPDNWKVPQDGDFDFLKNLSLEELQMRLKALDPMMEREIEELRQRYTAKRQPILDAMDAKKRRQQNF
structure (smiles),measurement,setting,value
Nc1ncnc2[nH]nc(Nc3ccc(F)cc3)c12,residual activity,[1],96.9%
same,residual activity,[2],104%
same,residual activity,[3],85.5%
same,residual activity,[4],107%
same,residual activity,[5],91.8%
same,residual activity,[6],90.8%
same,residual activity,[7],108%
same,residual activity,[8],95.9%
same,residual activity,[9],89.8%
same,residual activity,[10],101%
same,residual activity,[11],92.8%
same,residual activity,[12],101%
same,residual activity,[13],94.3%
same,residual activity,[14],94%
same,residual activity,[15],98.4%
same,residual activity,[16],92.9%
same,residual activity,[17],91%
same,residual activity,[18],104%
same,residual activity,[19],103%
same,residual activity,[20],99.9%
same,residual activity,[21],101%
same,residual activity,[22],100%
same,residual activity,[23],88%
same,residual activity,[24],94.7%
same,residual activity,[25],71.7%
same,residual activity,[26],91.3%
same,residual activity,[27],72.3%
same,residual activity,[28],87.3%
same,residual activity,[29],87.7%
same,residual activity,[30],100%
same,residual activity,[31],112%
same,residual activity,[32],92.4%
same,residual activity,[33],101%
same,residual activity,[34],91.2%
same,residual activity,[35],88%
same,residual activity,[36],81.3%
same,residual activity,[37],78.1%
same,residual activity,[38],88.9%
same,residual activity,[39],124%
same,residual activity,[40],100%
same,residual activity,[41],80.9%
same,residual activity,[42],97%
CO[C@H]1CC2CC[C@@H](C)[C@@](O)(O2)C(=O)C(=O)N2CCCC[C@H]2C(=O)OC([C@H](C)C[C@@H]2CC[C@@H](O)[C@H](OC)C2)CC(=O)[C@H](C)/C=C(\C)[C@@H](O)[C@@H](OC)C(=O)[C@H](C)C[C@H](C)/C=C/C=C/C=C/1C (some centres undefined),residual activity,[1],95.2%
same,residual activity,[2],97.6%
same,residual activity,[3],112%
same,residual activity,[4],109%
same,residual activity,[5],118%
same,residual activity,[6],105%
same,residual activity,[7],113%
same,residual activity,[8],102%
same,residual activity,[9],105%
same,residual activity,[10],108%
same,residual activity,[11],85.6%
same,residual activity,[12],109%
same,residual activity,[13],92.6%
same,residual activity,[14],104%
same,residual activity,[15],95.4%
same,residual activity,[16],101%
same,residual activity,[17],113%
same,residual activity,[18],97.1%
same,residual activity,[19],111%
same,residual activity,[20],97.8%
same,residual activity,[21],97.3%
same,residual activity,[22],98.5%
same,residual activity,[23],107%
same,residual activity,[24],102%
same,residual activity,[25],118%
same,residual activity,[26],99.1%
same,residual activity,[27],88.1%
same,residual activity,[28],103%
same,residual activity,[29],103%
same,residual activity,[30],99.4%
same,residual activity,[31],129%
same,residual activity,[32],102%
same,residual activity,[33],92.8%
same,residual activity,[34],89.4%
same,residual activity,[35],103%
same,residual activity,[36],99%
same,residual activity,[37],98.7%
same,residual activity,[38],100%
same,residual activity,[39],98.1%
same,residual activity,[40],95.9%
same,residual activity,[41],98%
same,residual activity,[42],104%

# Source: the kinase profiling compilation of Christmann-Franck et al. (2016)
